Measured values as given in ChEMBL document CHEMBL3046427, “Wound healing phytoconstituents from seed kernel of Entada pursaetha DC. and their molecular docking studies with glycogen synthase kinase 3-” (2012).
Activity calls are given as the source filed them. The calls are words filed in the database; no cut-off is given here.

Assays:
[1] = test system: Rattus norvegicus; assay: Wound healing activity in Rattus norvegicus Swiss albino Wistar (rat) excision wound model assessed as wound closure at 0.2% w/v administered topically measured on day 8 post-wounding (reference value: 48.75 +/- 1.34%); type: functional
[2] = test system: Rattus norvegicus; assay: Wound healing activity in Rattus norvegicus Swiss albino Wistar (rat) excision wound model assessed as time of epithelialization at 0.2% w/v administered topically (reference value: 24 +/- 0.26 days); type: functional
[3] = test system: Rattus norvegicus; assay: Wound healing activity in Rattus norvegicus Swiss albino Wistar (rat) dead space wound model assessed as hydroxyproline content per 100 g tissue at 15 mg/ml, po measured on day 10 post-wounding by Neuman-Logan method (reference value: 1369.67 +/- 10.54 ug); type: functional
[4] = test system: Rattus norvegicus; assay: Wound healing activity in Rattus norvegicus Swiss albino Wistar (rat) dead space wound model assessed as tissue breaking strength at 15 mg/ml, po measured on day 10 post-wounding (reference value: 260.83 +/- 14.05 g); type: functional
[5] = test system: Rattus norvegicus; assay: Wound healing activity in Rattus norvegicus Swiss albino Wistar (rat) excision wound model assessed as wound closure at 0.2% w/v administered topically measured on day 12 post-wounding (reference value: 69.04 +/- 1.05%); type: functional
[6] = test system: Rattus norvegicus; assay: Wound healing activity in Rattus norvegicus Swiss albino Wistar (rat) excision wound model assessed as wound closure at 0.2% w/v administered topically measured on day 16 post-wounding (reference value: 83.31 +/- 1.06%); type: functional
[7] = test system: Rattus norvegicus; assay: Wound healing activity in Rattus norvegicus Swiss albino Wistar (rat) excision wound model assessed as wound closure at 0.2% w/v administered topically measured on day 4 post-wounding (reference value: 25.59 +/- 1.79%); type: functional
[8] = test system: Rattus norvegicus; assay: Wound healing activity in Rattus norvegicus Swiss albino Wistar (rat) incision wound model assessed as skin breaking strength at 15 mg/ml, po measured on day 10 post-wounding by tensiometric analysis (reference value: 400 +/- 28.87 g); type: functional
[9] = test system: Rattus norvegicus; assay: Wound healing activity in Rattus norvegicus Swiss albino Wistar (rat) dead space wound model assessed as granular tissue weight per 100 g tissue at 15 mg/ml, po measured on day 10 post-wounding (reference value: 31 +/- 0.93 mg); type: functional
[10] = test system: Rattus norvegicus; assay: Wound healing activity in po dosed Rattus norvegicus Swiss albino Wistar (rat) incision wound model assessed as skin breaking strength measured on day 10 post-wounding by tensiometric analysis (reference value: 400 +/- 28.87 g); type: functional
[11] = test system: Rattus norvegicus; assay: Wound healing activity in Rattus norvegicus Swiss albino Wistar (rat) dead space wound model assessed as granular tissue weight per 100 g tissue at 10 mg/ml, po measured on day 10 post-wounding (reference value: 31 +/- 0.93 mg); type: functional
[12] = test system: Rattus norvegicus; assay: Wound healing activity in Rattus norvegicus Swiss albino Wistar (rat) dead space wound model assessed as increase in collagenation of granulation tissue at 10 mg/ml, po measured on day 10 post-wounding by histological analysis relative to control; type: functional, organism-based
[13] = test system: Rattus norvegicus; assay: Wound healing activity in Rattus norvegicus Swiss albino Wistar (rat) dead space wound model assessed as decrease in macrophages at 10 mg/ml, po measured on day 10 post-wounding by histological analysis relative to control; type: functional, organism-based
[14] = test system: Rattus norvegicus; assay: Wound healing activity in Rattus norvegicus Swiss albino Wistar (rat) dead space wound model assessed as tissue breaking strength at 10 mg/ml, po measured on day 10 post-wounding (reference value: 260.83 +/- 14.05 g); type: functional
[15] = test system: Rattus norvegicus; assay: Wound healing activity in Rattus norvegicus Swiss albino Wistar (rat) incision wound model assessed as skin breaking strength at 10 mg/ml, po measured on day 10 by tensiometric analysis (reference value: 400 +/- 28.87 g); type: functional
[16] = test system: Rattus norvegicus; assay: Wound healing activity in Rattus norvegicus Swiss albino Wistar (rat) dead space wound model assessed as hydroxyproline content per 100 g tissue at 10 mg/ml, po measured on day 10 post-wounding by Neuman-Logan method (reference value: 1369.67 +/- 10.54 ug); type: functional
[17] = test system: Rattus norvegicus; assay: Wound healing activity in Rattus norvegicus Swiss albino Wistar (rat) dead space wound model assessed as tissue breaking strength at 5 mg/ml, po measured on day 10 post-wounding (reference value: 260.83 +/- 14.05 g); type: functional
[18] = test system: Rattus norvegicus; assay: Wound healing activity in Rattus norvegicus Swiss albino Wistar (rat) dead space wound model assessed as hydroxyproline content per 100 g tissue at 5 mg/ml, po measured on day 10 post-wounding by Neuman-Logan method (reference value: 1369.67 +/- 10.54 ug); type: functional
[19] = test system: Rattus norvegicus; assay: Wound healing activity in Rattus norvegicus Swiss albino Wistar (rat) incision wound model assessed as skin breaking strength at 5 mg/ml, po measured on day 10 post-wounding by tensiometric analysis (reference value: 400 +/- 28.87 g); type: functional
[20] = test system: Rattus norvegicus; assay: Wound healing activity in Rattus norvegicus Swiss albino Wistar (rat) dead space wound model assessed as granular tissue weight per 100 g tissue at 5 mg/ml, po measured on day 10 post-wounding (reference value: 31 +/- 0.93 mg); type: functional

| Structure (SMILES) | Activity [1] | Time [2] | Activity [3] | Activity [4] | Activity [5] | Activity [6] | Activity [7] | Activity [8] | Activity [9] | Activity [10] | Activity [11] | Activity [12] | Activity [13] | Activity [14] | Activity [15] | Activity [16] | Activity [17] | Activity [18] | Activity [19] | Activity [20] |
| --- | --- | --- | --- | --- | --- | --- | --- | --- | --- | --- | --- | --- | --- | --- | --- | --- | --- | --- | --- | --- |
| O=C(O)Cc1cc(O)ccc1O[C@@H]1O[C@H](CO)[C@@H](O)[C@H](O)[C@H]1O [PHASEOLOIDIN] | 52.15% | 21.16 days | 1690.33 µg | 450.17 g | 70.08% | 88.5% | 27.08% | 490.33 g | 43.92 mg | – | – | – | – | – | – | – | – | – | – | – |
| NC(=O)N/N=C/c1ccc([N+](=O)[O-])o1 [NITROFURAZONE] | 80.7% | 16.33 days | – | – | 91.32% | 97.64% | 41.46% | – | – | 683.33 g | – | – | – | – | – | – | – | – | – | – |
| CC1(C)CC[C@]2(C(=O)O)[C@H](O)[C@H](O)[C@]3(C)C(=CC[C@@H]4[C@@]5(C)CC[C@H](O)C(C)(C)[C@@H]5CC[C@]43C)[C@@H]2C1 [ENTAGENIC ACID] | 65.21% | 18.08 days | – | – | 76.38% | 96.08% | 33.39% | – | – | – | 53.11 mg | Active | Active | 549.83 g | 655.67 g | 2001.33 µg | – | – | – | – |
| CS/C=C/C(=O)NCCO [ENTADAMIDE] | 57.32% | 19.92 days | – | – | 71.27% | 92.22% | 28.28% | – | – | – | – | – | – | – | – | – | 463.33 g | 1891.17 µg | 533.5 g | 50.75 mg |
